The numbers were not newly measured in US20020137785A1, “Inflammatory mechanism modulator composition and methods with anti-asthmatic properties” (priority 2001, published 2002), which cites them from elsewhere.

Structures are written as SMILES.

For data set [1] the following is noted: people with septic shock; NAC alone; reduced from 21 days.
The conditions of data set [2]: intravenous; coronary artery disease; tachycardia induced in the electrophysiology laboratory.

`CC(=O)N[C@@H](CS)C(=O)O` [NAC, N-acetyl-cysteine]: in data set [1], the “ventilator time (mechanical breathing)” value is given as “about 7 days”. In the case of `O=S(=O)([O-])[O-].[Mg+2]` [magnesium sulfate], in data set [2], the “aborting monomorphic ventricular tachycardia” value is “ineffective”.
